Experimental data from patent US10342758B2, “Cationic lipid” (Kyowa Hakko Kirin Co., Ltd., priority 2012, dated 2019).

Assays:
[1] = Average particle diameter of preparation (Zetasizer Nano ZS); assay type: physicochemical; conditions: preparation with apo-b siRNA; compound/PEG-DMPE Na/DSPC/cholesterol; Example 49 / Comparative Example 1
[2] = as above; assay type: physicochemical; conditions: preparation with f7 siRNA
Procedure: The average particle diameter of each preparation (composition) was measured using a particle diameter measurement device (Zetasizer Nano ZS, manufactured by Malvern, hereafter the same).
The average particle diameter of each preparation (composition) was measured using a particle diameter measurement device.
Each sample was weighed and suspended in an aqueous solution containing hydrochloric acid and ethanol so that the ratio of Compound A-1/PEG-DMPE Na (manufactured by NOF Corporation) was 57.3/5.52 mmol/L, and then, the resulting mixture was repeatedly subjected to stirring using a vortex stirring mixer and heating, whereby a uniform suspension was obtained. This suspension was passed through a 0.2-μm polycarbonate membrane filter and thereafter passed through a 0.05-μm polycarbonate membrane filter at room temperature, whereby a dispersion liquid of particles (liposome) of Compound A-1/PEG-DMPE Na was obtained. The average particle diameter of the obtained liposome was measured using a particle diameter measuring apparatus to confirm that the average particle diameter was within the range from 30 nm to 100 nm. In the obtained dispersion liquid of liposome, the f7 siRNA solution was mixed at a ratio of the dispersion liquid of liposome to the fl siRNA solution of 3:1, and then, distilled water that was three times the amount was added thereto and mixed therewith, whereby a dispersion liquid of Compound A-1/PEG-DMPE Na/f7 siRNA complex was prepared.
The average particle diameter of the preparation (composition) was measured using a particle diameter measurement device.

apo-b gene mRNA = assay: Expression ratio of apo-b mRNA after introduction of preparations into HepG2 cells; assay type: cell-based, human; conditions: nucleic acid 3 to 100 nM, 24 hours, composition with apo-b siRNA (FIG. 1)
Excerpt: Each of the preparation: obtained in Example 49 (the compositions containing any of Compounds A-1, and A-3 to A-5, and the nucleic acid) and the preparations obtained in Comparative Example 1 (the compositions containing any of DLin-KC2-DMA and Compounds XI-1 to XI-3, and the nucleic acid) was introduced into cells of human liver cancer-derived cell line HepG2 (HB-8065) by the following method.
Each preparation diluted with Opti-MEM (GIBCO Co., Ltd., 31985) so that the final concentration of the nucleic acid was 3 to 100 nM was dispensed in a 96-well culture plate at 20 μL/well. […]
By using the obtained cDNA as a template and also using a universal probe library (Roche Applied Science, Inc., 04683633001) as the probe and ABI7900HT Fast (manufactured by ABI, Inc.), a PCR reaction was performed according to the method described in the protocol attached thereto, so that the apo-b gene and D-glyceraldehyde-3-phosphate dehydrogenase (hereinafter, represented by “gapdh”) gene, which is a constitutively expressed gene, were subjected to the PCR reaction. Then, the amount of the amplified mRNA was measured for each gene, and a quasi-quantitative value of the apo-b mRNA was calculated using the amount of the amplified gapdh mRNA as the internal control. […]

[3] = compound/PEG-DMPE Na/DSPC/cholesterol, Examples 50, 51 / Comparative Example 2
[4] = liposome/siRNA complex encapsulated by lipid membrane, Examples 52, 53 / Comparative Example 3

| SMILES | Particle diameter of Preparation obtained [1] [nm] | Particle diameter of Preparation obtained [2, 3] [nm] | Particle diameter of Preparation obtained [2, 4] [nm] | expression of the apo-b gene mRNA (apo-b gene mRNA) |
| --- | --- | --- | --- | --- |
| CCCCCC/C=C\CCCCCCCCN(CCCCCCCC/C=C\CCCCCC)C(=O)OCCCN(C)C [Compound A-3, 3-(Dimethylamino)propyl di(Z)-hexadec-9-enyl) carbamate] | 150.0 |  |  |  |
| CCCCCCCC/C=C\CCCCCCCCN(CCCCCCCC/C=C\CCCCCCCC)C(=O)OCC1CCCN(C)C1 (stereo not shown) [Compound A-18, (1-Methylpiperidin-3-yl)methyl di((Z)-octadec-9-enyl)carbamate] |  | 138.4 | 112.0 |  |
| CCCCC/C=C\C/C=C\CCCCCCCCOCCN(CCCCCCCC/C=C\C/C=C\CCCCC)C(=O)OCCC1CCCN1C (stereo not shown) [Compound A-30] |  | 130.4 | 106.2 |  |
| CCCCC/C=C\C/C=C\CCCCCCCCN(CCCCCCCC/C=C\C/C=C\CCCCC)C(=O)OCC1CCN(C)CC1 [Compound A-14, (1-Methylpiperidin-4-yl)methyl di((9Z,12Z)-octadeca-9,12-dien-1-yl)carbamate] |  | 134.4 | 99.7 |  |
| CCCCC/C=C\C/C=C\CCCCCCCCCCN(CCCO)CCCCCCCCCC/C=C\C/C=C\CCCCC [Compound C-3, 3-(Di((11Z,14Z)-icosa-11,14-dienyl)amino)propan-1-ol] |  | 138.4 | 94.1 |  |
| CCCCC/C=C\C/C=C\CCCCCCCCN(CCCCCCCC)C(=O)OCCCN(C)C [Compound A-11, 3-(Dimethylamino)propyl ((9Z,12Z)-octadeca-9,12-dienyl)(octyl)carbamate] |  | 153.4 |  |  |
| CCCCC/C=C\C/C=C\CCCCCCCCCCN(CCCCCCCCCC/C=C\C/C=C\CCCCC)C(=O)OCC1CCCN(C)C1 (stereo not shown) [Compound A-20, (1-Methylpiperidin-3-yl)methyl di((11Z,14Z)-icosa-11,14-dienyl)carbamate] |  | 145.1 | 95.7 |  |
| CCCCC/C=C\C/C=C\CCCCCCCCN(CCCCCCCC/C=C\C/C=C\CCCCC)C(=O)CCCCN(C)C [Compound XI-2, 5-(Dimethylamino)-N,N-di((9Z,12Z)-octadeca-9,12-dienyl)pentanamide] |  |  |  | did not suppress the expression of the apo-b gene mRNA |
